Results from DBAASP.
Converted amounts (≈) assume the structure as drawn.

Assays:
Assay in all cases: ≥ marks a high value that may be exact or a test limit, other limits are often not marked, values filed in µg/mL are converted to µM
[1] = test system: Escherichia coli ATCC 25922
[2] = test system: Pseudomonas aeruginosa ATCC 27853
[3] = test system: Staphylococcus aureus ATCC 12600
[4] = test system: Streptococcus mutans ATCC 25175
Bacillus megaterium = test system: Bacillus megaterium
Escherichia coli ML-35 = test system: Escherichia coli ML-35
[5] = test system: Salmonella enterica subsp. enterica serovar Typhimurium ATCC 14028
[6] = test system: Staphylococcus aureus ATCC 25923
[7] = test system: Pseudomonas aeruginosa 253
[8] = test system: Pseudomonas aeruginosa 910
[9] = test system: Pseudomonas aeruginosa 919
[10] = test system: Pseudomonas aeruginosa PAO1
[11] = test system: Escherichia coli DH5alpha
Staphylococcus xylosus = test system: Staphylococcus xylosus
Escherichia coli = test system: Escherichia coli
Listeria innocua = test system: Listeria innocua
Micrococcus luteus A270 = test system: Micrococcus luteus A270
Candida albicans = test system: Candida albicans
[12] = test system: Enterococcus faecalis ATCC 29212
Escherichia coli UB1005 = test system: Escherichia coli UB1005
[13] = test system: Pseudomonas aeruginosa H103
[14] = test system: Salmonella enterica serovar Typhimurium
[15] = test system: Staphylococcus epidermidis
[16] = test system: Escherichia coli ATCC 27325

`CC[C@H](C)[C@H](NC(=O)[C@H](C)NC(=O)CNC(=O)[C@H](Cc1ccccc1)NC(=O)[C@H](CC(C)C)NC(=O)CN)C(=O)N[C@@H](C)C(=O)NCC(=O)N[C@@H](Cc1ccccc1)C(=O)N[C@H](C(=O)N[C@@H](CCCCN)C(=O)N[C@@H](CCCCN)C(=O)NCC(=O)N[C@@H](Cc1c[nH]c2ccccc12)C(=O)N[C@@H](CCCCN)C(=O)NCC(=O)N[C@@H](CCSC)C(=O)N[C@H](C(=O)N[C@@H](CCCCN)C(=O)NCC(N)=O)C(C)C)[C@@H](C)CC` [GLFGAIAGFIKKGWKGMVKG] was tested, and the MIC [1] was 7.6 µM (≈ 15.7 µg/mL), the MIC [2] was 7.6 µM (≈ 15.7 µg/mL) and the MIC [3] was 3.8 µM (≈ 7.85 µg/mL). For the same molecule, the MIC [4] was 1.9 µM (≈ 3.92 µg/mL).

With `CC[C@H](C)[C@H](NC(=O)[C@H](CCCCN)NC(=O)[C@H](CCCCN)NC(=O)[C@H](CC(C)C)NC(=O)[C@H](CCCCN)NC(=O)[C@H](CCC(N)=O)NC(=O)[C@H](CCCCN)NC(=O)[C@@H](NC(=O)[C@H](CCCCN)NC(=O)[C@H](CC(N)=O)NC(=O)[C@H](CCCN=C(N)N)NC(=O)[C@H](Cc1ccccc1)NC(=O)[C@H](CCCCN)NC(=O)[C@H](CCCN=C(N)N)NC(=O)[C@H](CC(C)C)NC(=O)[C@H](CCCN=C(N)N)NC(=O)[C@H](CCCCN)NC(=O)[C@H](CCCN=C(N)N)NC(=O)[C@H](CC(C)C)NC(=O)CN)[C@@H](C)CC)C(=O)O` [GLRKRLRKFRNKIKQKLKKI] the MIC (Bacillus megaterium) was 4 µM (≈ 10.2 µg/mL), the MIC [1] was 4 µM (≈ 10.2 µg/mL) and the MIC (Escherichia coli ML-35) was 2 µM (≈ 5.1 µg/mL). The MIC [2] was 0.5 µM (≈ 1.28 µg/mL), the MIC [5] was 2 µM (≈ 5.1 µg/mL) and the MIC [6] was 4 µM (≈ 10.2 µg/mL).

`CC[C@H](C)[C@H](N)C(=O)N[C@@H](CC(C)C)C(=O)N[C@@H](CCCCN)C(=O)N[C@@H](Cc1c[nH]c2ccccc12)C(=O)N[C@@H](CCCCN)C(=O)N[C@@H](CCCCN)C(=O)NCC(=O)N[C@@H](Cc1c[nH]c2ccccc12)C(=O)N[C@@H](Cc1c[nH]c2ccccc12)C(=O)N[C@@H](CCCCN)C(=O)N[C@@H](Cc1c[nH]c2ccccc12)C(=O)N[C@@H](Cc1ccccc1)C(=O)N[C@@H](CCCN=C(N)N)C(N)=O` [ILKWKKGWWKWFR] gave an MIC [7] of 8 µM (≈ 14.9 µg/mL), an MIC [8] of 4 µM (≈ 7.45 µg/mL) and an MIC [9] of 16 µM (≈ 29.8 µg/mL). The MIC [10] was 4 µM (≈ 7.45 µg/mL).

`CC[C@H](C)[C@H](N)C(=O)N[C@@H](CC(C)C)C(=O)N[C@@H](CCCCN)C(=O)N[C@@H](Cc1c[nH]c2ccccc12)C(=O)N[C@@H](CCCCN)C(=O)N[C@@H](CCCN=C(N)N)C(=O)N[C@@H](CCCCN)C(=O)N[C@@H](Cc1c[nH]c2ccccc12)C(=O)N[C@@H](Cc1c[nH]c2ccccc12)C(=O)N[C@@H](CCCCN)C(=O)N[C@@H](Cc1c[nH]c2ccccc12)C(=O)N[C@@H](CCCN=C(N)N)C(=O)N[C@@H](CCCN=C(N)N)C(N)=O` [ILKWKRKWWKWRR] gave an MIC [7] of 4 µM (≈ 7.88 µg/mL), an MIC [8] of 2 µM (≈ 3.94 µg/mL) and an MIC [9] of 16 µM (≈ 31.5 µg/mL). For the same molecule, the MIC [10] was 1 µM (≈ 1.97 µg/mL).

With `NCCCC[C@H](NC(=O)[C@H](CCCCN)NC(=O)[C@H](CCCCN)NC(=O)[C@H](Cc1ccccc1)NC(=O)[C@H](Cc1ccccc1)NC(=O)[C@H](Cc1ccccc1)NC(=O)[C@H](Cc1ccccc1)NC(=O)[C@H](Cc1ccccc1)NC(=O)[C@H](CCCCN)NC(=O)[C@H](CCCCN)NC(=O)[C@@H](N)CCCCN)C(=O)O` [KKKFFFFFKKK] the MIC [11] was 16 µM (≈ 24.4 µg/mL) and the MIC (Staphylococcus xylosus) was 4 µM (≈ 6.09 µg/mL).

`CC[C@H](C)[C@H](NC(=O)[C@H](CCCCN)NC(=O)[C@H](CCCN=C(N)N)NC(=O)[C@@H](N)CCCCN)C(=O)N[C@@H](CCCCN)C(=O)N[C@@H](CCCN=C(N)N)C(=O)N[C@@H](CCCCN)C(=O)O` [KRKIKRK] gave an MIC [11] of no less than 64 µM and an MIC (Staphylococcus xylosus) of no less than 64 µM.

`CC[C@H](C)[C@H](NC(=O)[C@H](CC(C)C)NC(=O)[C@H](CCCCN)NC(=O)[C@H](CCCN=C(N)N)NC(=O)[C@@H](N)CCCCN)C(=O)N[C@@H](CC(C)C)C(=O)N[C@@H](CCCCN)C(=O)N[C@@H](CCCN=C(N)N)C(=O)N[C@H](C(=O)N[C@@H](CC(C)C)C(=O)N[C@H](C(=O)N[C@@H](CCCCN)C(=O)N[C@@H](CCCN=C(N)N)C(=O)N[C@@H](CCCCN)C(=O)O)[C@@H](C)CC)[C@@H](C)CC` [KRKLILKRILIKRK] was tested, and the MIC [11] was 16 µM (≈ 28.9 µg/mL) and the MIC (Staphylococcus xylosus) was 8 µM (≈ 14.5 µg/mL).

`CC(C)C[C@H](NC(=O)[C@@H](NC(=O)[C@@H](NC(=O)[C@H](CC(C)C)NC(=O)[C@H](CC(C)C)NC(=O)[C@H](CO)NC(=O)[C@H](Cc1cnc[nH]1)NC(=O)[C@H](CO)NC(=O)[C@H](CC(C)C)NC(=O)[C@H](CC(C)C)NC(=O)[C@H](CCCCN)NC(=O)[C@H](Cc1ccccc1)NC(=O)[C@H](CC(N)=O)NC(=O)[C@@H](NC(=O)[C@@H]1CCCN1C(=O)[C@H](CC(=O)O)NC(=O)[C@@H](NC(=O)[C@H](CCCN=C(N)N)NC(=O)[C@H](CC(C)C)NC(=O)[C@H](CCCCN)NC(=O)[C@H](Cc1cnc[nH]1)NC(=O)[C@H](C)NC(=O)[C@H](Cc1cnc[nH]1)NC(=O)[C@@H](N)CC(C)C)C(C)C)C(C)C)C(C)C)[C@@H](C)O)C(=O)O` [LHAHKLRVDPVNFKLLSHSLLVTL] gave an MIC (Escherichia coli) of 11 µM (≈ 30.3 µg/mL), an MIC (Listeria innocua) of 11 µM (≈ 30.3 µg/mL) and an MIC (Micrococcus luteus A270) of no less than 45 µM.

`CC[C@H](C)[C@H](NC(=O)[C@H](CCCN=C(N)N)NC(=O)[C@H](Cc1c[nH]c2ccccc12)NC(=O)[C@H](CC(C)C)NC(=O)[C@@H](N)CCCN=C(N)N)C(=O)N[C@H](C(=O)N[C@H](C(=O)N[C@H](C(=O)N[C@@H](CCCN=C(N)N)C(=O)N[C@H](C(=O)N[C@@H](C)C(=O)N[C@@H](CCCN=C(N)N)C(N)=O)C(C)C)[C@@H](C)CC)C(C)C)C(C)C` [RLWRIVVIRVAR] was tested, and the MIC (Candida albicans) was 5.21 µM (≈ 7.99 µg/mL), the MIC [12] was 1.3 µM (≈ 2 µg/mL) and the MIC (Escherichia coli UB1005) was 1.3 µM (≈ 2 µg/mL). The MIC [7] was no less than 32 µM, the MIC [8] was no less than 32 µM and the MIC [9] was no less than 32 µM. For the same molecule, the MIC [13] was 5.21 µM (≈ 7.99 µg/mL), the MIC [10] was 16 µM (≈ 24.6 µg/mL) and the MIC [14] was 5.21 µM (≈ 7.99 µg/mL). For the same molecule, the MIC [6] was 1.3 µM (≈ 2 µg/mL) and the MIC [15] was 0.325 µM (≈ 0.5 µg/mL).

Work on `CC(C)C[C@H](NC(=O)[C@H](CC(C)C)NC(=O)[C@H](CC(C)C)NC(=O)[C@H](CC(C)C)NC(=O)[C@H](CC(C)C)NC(=O)[C@H](CCCN=C(N)N)NC(=O)[C@H](CCCN=C(N)N)NC(=O)[C@@H](N)CCCN=C(N)N)C(=O)N[C@@H](CCCN=C(N)N)C(=O)N[C@@H](CCCN=C(N)N)C(=O)N[C@@H](CCCN=C(N)N)C(=O)O` [RRRLLLLLRRR] yielded an MIC [11] of 8 µM (≈ 12.2 µg/mL) and an MIC (Staphylococcus xylosus) of 1 µM (≈ 1.52 µg/mL).

Work on `CC(C)C[C@H](NC(=O)CNC(=O)[C@H](C)NC(=O)[C@H](CCCN=C(N)N)NC(=O)[C@H](CO)NC(=O)[C@H](CO)NC(=O)[C@H](CCCN=C(N)N)NC(=O)[C@@H](N)[C@@H](C)O)C(=O)N[C@@H](CCC(N)=O)C(=O)N[C@@H](Cc1c[nH]c2ccccc12)C(=O)N[C@@H](C)C(=O)N[C@H](C(=O)NCC(=O)N[C@@H](CCCN=C(N)N)C(=O)N[C@H](C(=O)N[C@@H](Cc1cnc[nH]1)C(=O)N[C@@H](CCCN=C(N)N)C(=O)N[C@@H](CC(C)C)C(=O)N[C@@H](CC(C)C)C(=O)N[C@@H](CCCN=C(N)N)C(=O)N[C@@H](CCCCN)C(=O)O)C(C)C)C(C)C` [TRSSRAGLQWAVGRVHRLLRK] yielded an MIC [16] of 6 µM (≈ 14.7 µg/mL).
